In US9889094B2, “Particle size reduction of an antimuscarinic compound” (CHIESI FARMACEUTICI S.p.A., priority 2013, dated 2018):
Where two headings read alike, the source gives them in different places.

Columns and labels:
[1] = Scanning Electron Microscopy (SEM) of particles; type: physicochemical; conditions: after the homogenization step, Example 1 (2H,3H-decafluoropentane); platelet-like particles
[2] = Specific surface area by BET nitrogen adsorption; type: physicochemical; conditions: Example 1 powder; for BET SSA: storage 22±2° C., 60% relative humidity
Experimental: Advantageously, the specific surface area of the obtained particles upon drying and sieving, is from to 8 m^2/g, advantageously from to 7 m^2/g, preferably from 3 to 6 m^2/g. The Specific Surface Area is determined by Brunauer-Emmett-Teller (BET) nitrogen adsorption method according to a procedure known in the art.
Alternatively, the physical stability may be measured using the specific surface area of the drug particles analysed by adsorption analysis, BET surface measurement, according to a method known to the skilled person.
Specific surface area (SSA) of the dried and sieved particles, analyzed by BET nitrogen adsorption method, was determined to be of about 4.3 m^2/g.

[3] = Drying and re-dispersion after wet bead milling in acetone (comparative example); type: physicochemical; conditions: wet bead milled in acetone, 200 rpm, 60 minutes; dried at 25° C. under low vacuum; white to off-white solid cake
Experimental: The vessel was sealed and the suspension homogenized into the planetary mill apparatus disclosed in WO 2007/020407, which is incorporated herein by reference in its entirety, at a disc speed of 200 rpm for 60 minutes at ambient temperature and pressure. After 60 minutes, the resulting drug suspension is separated from the milling media by filtering through a nylon mesh and the resulting drug suspension loaded into a drying tray.

[4] = Crystallinity / polymorphic form by X-ray powder diffraction and DSC; type: physicochemical; conditions: for XRD: Example 1 powder, storage 22±2° C., 60% relative humidity
[5] = Crystallinity / polymorphic form by DVS; type: physicochemical; conditions: Example 4 final product (dichloromethane) compared to the initial coarse drug
[6] = Example 1 powder (2H,3H-decafluoropentane), storage 22±2° C., 60% relative humidity, time 0
[7] = Example 1 powder, storage 22±2° C., 60% relative humidity, 1 W
[8] = Example 1 powder, storage 22±2° C., 60% relative humidity, 2 W
[9] = Example 1 powder, storage 22±2° C., 60% relative humidity, 3 M
[10] = Example 1 powder, storage 22±2° C., 60% relative humidity, 4 W
[11] = Example 4 powder (dichloromethane), time 0
[12] = Example 5 powder (perfluoroheptane isomer mixture), 45 minutes processing, time 0

- PSD d(v0.1) [6]: 0.71
- PSD d(v0.5) [6]: 1.85
- PSD d(v0.9) [6]: 4.77
- d(v0.5) (Example 1 powder after micronization and drying (2H,3H-decafluoropentane)): 1.85 μm
- change of particle size upon storage (Example 1 powder, storage 22±2° C., 60% relative humidity, up to 3 months): does not significantly change
- PSD d(v0.1) [7]: 0.72
- PSD d(v0.5) [7]: 1.92
- PSD d(v0.9) [7]: 5.03
- PSD d(v0.1) [8]: 0.72
- PSD d(v0.5) [8]: 1.88
- PSD d(v0.9) [8]: 4.95
- PSD d(v0.1) [9]: 0.75
- PSD d(v0.5) [9]: 2.07
- PSD d(v0.9) [9]: 5.26
- PSD d(v0.1) [10]: 0.72
- PSD d(v0.5) [10]: 1.93
- PSD d(v0.9) [10]: 4.97
- PSD d(v0.1) [11]: 0.80
- PSD d(v0.5) [11]: 2.06
- PSD d(v0.9) [11]: 6.46
- d(v0.5) (Example 4 powder after micronization and drying (dichloromethane)): 2.06 μm
- PSD d(v0.1) [12]: 0.66
- PSD d(v0.5) [12]: 1.70
- PSD d(v0.9) [12]: 4.31
- average particle size by SEM [1]: below 5 μm
- Specific surface area (SSA) ([2]; dried and sieved particles): about 4.3 m^2/g
- BET SSA ([2]; 1 W): 4.198 m^2/g
- BET SSA ([2]; 2 W): 4.210 m^2/g
- BET SSA ([2]; 3 M): 4.00 m^2/g
- BET SSA ([2]; 4 W): 4.086 m^2/g
- BET SSA ([2]; time 0): 4.326 m^2/g
- XRD ([4]; 4 W): Crystalline
- XRD ([4]; time 0): Crystalline
Structure (SMILES): C[N+]1(C)CCC(OC(=O)C(O)(c2ccccc2)C2CCCC2)C1 (racemic) [rac-glycopyrronium bromide, (3S,2′R), (3R,2′S)-3-[(cyclopentylhydroxyphenylacetyl)oxy]-1,1-dimethylpyrrolidinium bromide]
- re-dispersibility of dried product [3]: could not be re-dispersed under mechanical agitation
- change in degree of crystallinity or polymorphic form (XPRD and DSC) ([4]; Example 1 final product compared to the initial coarse drug): no change in degree of crystallinity or polymorphic form
- change in degree of crystallinity or polymorphic form (DVS) [5]: no change in degree of crystallinity or polymorphic form
